The subject of series [1] is E. coli PQ37. Briefly: Primary DNA damage test (SOS-chromotest). The format is cell-based. Particulars: for mean induction factor: 1000 μg mL^-1, less than two indicates absence of genotoxic activity; for induction of SOS repair: all concentrations tested, 7.81-1000 μg mL^-1. Here is the method:
The SOS-chromotest in E. coli PQ37 was used to determine the potential for DAA and AA to induce primary DNA damage. This test was carried out according to the previously developed method (Fish et al., 1987). […] E. coli PQ37 was incubated in LB medium in a 96-well plate at 37° C. in the presence of DAA or AA for 2 hours. The DAA and AA concentrations tested were 7.81, 15.6, 31.2, 62.5, 125, 250, 500, and 1000 μg mL^−1. Samples were evaluated in triplicate. Following incubation with the samples, 5-bromo-4-chloro-3-indolyl-β-D-galactopyranoside was added to the wells to detect β-galactosidase enzyme activity, which is induced during SOS repair of damaged DNA. Nitrophenyl phosphate is also added to the wells to measure alkaline phosphatase activity, an indicator of cell viability. The samples were again incubated and the absorbances of the samples, blanks and controls were measured at 410 and 620 nm with a microplate reader. […] The induction factor of each material was calculated by dividing the absorbance of the sample at 620 nm by that of the blank, while also correcting for cell viability. Induction factors less than two indicate an absence of genotoxic activity.

The test system of series [2] is E. coli PQ37. Briefly: Anti-genotoxicity test (SOS-chromotest with 4NQO, Example Three). Type of series: cell-based. The note with it: for reduction in genotoxicity: 250 μg iridoid plus 1.25 μg mL^-1 4NQO; for induction factor of 4NQO plus iridoid compared with vehicle blank: 250 μg mL^-1 iridoid plus 1.25 μg mL^-1 4NQO. Here is the method:
The primary DNA damage test was performed again, similar to the method described above. […] Induction factors were calculated in the same manner as described above.

Series [3] in a line: HPLC-PDA quantitation of iridoids (DAA, AA), with method validation, precision and stability assays. Particulars: fresh noni juice; for Amount detected, Inter-day: inter-day precision and stability assay over 3 consecutive days; for Amount detected, Day 1 / Amount detected, Day 2 / Amount detected, Day 3: intra-day precision and stability assay; for Amount detected, Day 1: n = 3, Day 1; for Amount detected, Day 2: n = 3, Day 2; for Amount detected, Day 3: n = 3, Day 3. The source says: Acetonitrile (MeCN), methanol (MeOH), and water (H2O) of HPLC grade were obtained from Sigma-Aldrich (St. Louis, Mo., USA). Formic acid of analytical grade was purchased from Spectrum Chemical Mfg. Corp. (New Brunswick, N.J., USA). The chemical standard deacetylasperulosidic acid (DAA, 1) and asperulosidic acid (AA, 2) were isolated from noni fruits in our laboratory. […] They were accurately weighed and then dissolved in an appropriate volume of MeCN to produce corresponding stock solutions. The working standard solution of 1 and 2 for the calibration curve was prepared by diluting the stock solution with MeOH in seven concentration increments ranging from 0.00174-1.74 and 0.0016-0.80 mg/mL, respectively. All stock and working solutions were maintained at […] in a refrigerator. The calibration curves of standards were plotted after linear regression of the peak areas versus concentrations.
(§1) Tahitian noni fruit puree as used in this example is the mashed whole fruit, excluding seeds and pericarp. The fruits were originally collected from the Tahitian Islands. One gram of the puree was diluted with 5 mL of H2O—MeOH (1:1) and mixed thoroughly. The solution was then filtered through a nylon microfilter (0.45-μm pore size); the solution was collected into a 5 mL volumetric flask for HPLC analysis. Four batches of noni puree were analyzed in the experiments. Voucher specimens of the noni fruit puree are deposited in our lab. To test iridoid stability, a DAA solution of 0.5 mg/mL was prepared with MeOH. This solution was heated in a water-bath at 90° C. for 1 min, cooled to room temperature, and analyzed by HPLC.
Chromatographic separation was performed on a Waters 2690 separations module coupled with 996 PDA detectors, and equipped with an Atlantis C18 column (4.6 mm×250 mm; 5 Waters Corporation, Milford, Mass., USA). The pump was connected to two mobile phases: A; MeCN, and B; 0.1% formic acid in H2O (v/v), and eluted at a flow rate of 0.8 mL/min. The mobile phase was programmed consecutively in linear gradients as follows: 0-5 min, 0% A; and 40 min, 30% A. The PDA detector was monitored in the range of 210-400 nm (235 nm was selected for quantitative analysis). The injection volume was 10 μL for each of the sample solutions. The column temperature was maintained at 25° C. Data collection and integration were performed using Waters Millennium software revision 32.
The limits of detection (LOD) and quantitation (LOQ) were defined as the lowest concentrations of analytes in a sample that can be detected and quantified. These LOD and LOQ limits were determined on the basis of signal-to-noise ratios (S/N) of 3:1 and 10:1, respectively. The working solutions of standards 1 and 2 for LOD and LOQ were prepared by diluting them sequentially. The intra- and inter-day precision assays, as well as stability tests were performed by following the method applied to the sample analysis for 3 consecutive days. Accuracy of the method (recovery) was assessed by the recovery percentage of iridoids 1 and 2 in the spiked samples. The noni fruit puree samples were spiked with standards at 3 different concentrations (equivalent to 50%, 100% and 150% concentration of 1 and 2 in the samples). The recovery percentage was calculated using the ratio of concentration detected (actual) to those spiked (theoretical). Variation was evaluated by the relative standard deviation (RSD) of triplicate injections in the HPLC experiments.
The iridoid content, inclusive of deacetylasperulosidic acid (DAA) and asperulosidic acid (AA), was determined by HPLC, according to a previously reported method (Deng et al., 2010 b). Other significant secondary metabolites, such as scopoletin, rutin, and quercetin, were also determined by HPLC (Deng et al., 2010 a).
HPLC grade acetonitrile (MeCN), methanol (MeOH), and water (H2O) were obtained from Sigma-Aldrich (St. Louis, Mo., USA). Analytical grade formic acid was purchased from Spectrum Chemical Mfg. Corp. (New Brunswick, N.J., USA). […]

In another series the test system is mammalian cells. The note with it: cited from earlier work.
Series [4] concerns E. coli PQ37. The format is cell-based. Particulars: 250 ug mL^-1 iridoid plus 1.25 ug mL^-1 4NQO; blank = 1. The protocol:
The SOS-chromotest in E. coli PQ37 was used to determine the potential for iridoids in noni fruit from French Polynesia to prevent primary DNA damage. E. coli PQ37 was incubated at 37° C. in the presence of deacetylasperulosidic acid and asperulosidic acid at a concentration of 250 ug mL^−1 in a 96-well plate. Replicate samples were evaluated. […] Following incubation with the samples, 5-bromo-4-chloro-3-indolyl-β-D-galactopyranoside was added to the wells to detect β-galactosidase enzyme activity, which is induced during SOS repair of damaged DNA. The samples were again incubated for 90 minutes and the absorbances of the samples, blank and positive control were measured at 620 nm with a microplate reader. The β-galactosidase enzyme activity induction factor of each material was calculated by dividing the absorbance of the sample at 620 nm by that of the blank, while also correcting for cell viability.

Series [5] is described as follows: Thermal stability of DAA under pasteurization conditions (HPLC). The note with it: 90° C. at pH 3.3 for one minute. Type of series: physicochemical. Here is the method: as §1
Noni fruit juice is usually subjected to heat pasteurization during commercial processing. Pasteurization is usually employed in noni industry, i.e., heating up to 87.7° C. for several seconds. In this study, the stability of DAA was conducted. DAA was exposed to 90° C. at pH 3.3 for one minute to determine its thermal stability at acidic conditions.

Where [6] appears, read: 7.81 μg mL^−1, E. coli PQ37, 2 hours.
The mark [7] stands for this setting: 15.6 μg mL^−1, E. coli PQ37, 2 hours.
Setting [8] is: 31.2 μg mL^−1, E. coli PQ37, 2 hours.
Setting [9] is: 62.5 μg mL^−1, E. coli PQ37, 2 hours.
Where [10] appears, read: 125 μg mL^−1, E. coli PQ37, 2 hours.
The mark [11] stands for this setting: 250 μg mL^−1, E. coli PQ37, 2 hours.
[12] abbreviates: 500 μg mL^−1, E. coli PQ37, 2 hours.
[13] abbreviates: 1000 μg mL^−1, E. coli PQ37, 2 hours.

`CC(=O)OCC1=C[C@H](O)[C@@H]2C(C(=O)O)=CO[C@@H](O[C@@H]3O[C@H](CO)[C@@H](O)[C@H](O)[C@H]3O)[C@H]12` [AA, asperulosidic acid]: the Induction factor in the series on E. coli PQ37 [1] (setting [6]) worked out at 1.01 ± 0.05; with E. coli PQ37 [1] (setting [7]), 1.04 ± 0.11; with E. coli PQ37 [1] (setting [8]) it was 0.99 ± 0.06; in the series on E. coli PQ37 [1] (setting [9]), 1.04 ± 0.13; in the series with E. coli PQ37 [1] (setting [10]), 1.02 ± 0.08; with E. coli PQ37 [1] (setting [11]), 1.11 ± 0.16. Also, the Induction factor in the series on E. coli PQ37 [1] (setting [12]) is 1.07 ± 0.04; in the series with E. coli PQ37 [1] (setting [13]), 1.09 ± 0.03. Moreover, the mean induction factor in the series on E. coli PQ37 [1] is 1.09. Also, the “induction of SOS repair” value in the series with E. coli PQ37 [1] is on record as “did not induce any SOS repair at a frequency significantly above that of the blank”. For the same compound, the reduction in genotoxicity with E. coli PQ37 [2] was 99.22%. Also, the “induction factor of 4NQO plus iridoid compared with vehicle blank” value in the series on E. coli PQ37 [2] is “no statistical difference from that of the vehicle blank”. In addition, the “Amount detected, Inter-day” value in series [3] was found to be 0.281 mg/mL. In addition, the “Amount detected, Day 1” value in series [3] came out at 0.276 mg/mL. In series [3], the “Amount detected, Day 2” value is reported as 0.281 mg/mL. Besides, in series [3], the “Amount detected, Day 3” value was found to be 0.287 mg/mL. Besides, in the series with mammalian cells, the “genotoxicity in mammalian cells” value was “non-genotoxic”.

Turning to `O=C(O)C1=CO[C@@H](O[C@@H]2O[C@H](CO)[C@@H](O)[C@H](O)[C@H]2O)[C@@H]2C(CO)=C[C@H](O)[C@H]12` [DAA, deacetylasperulosidic acid], in the series with E. coli PQ37 [4], the “β-galactosidase enzyme activity induction factor of iridoid plus 4NQO (mean±standard deviation)” value stood at 0.98±0.02. For the same compound, the Induction factor with E. coli PQ37 [1] (setting [6]) is given as 0.93 ± 0.13; with E. coli PQ37 [1] (setting [7]), 1.03 ± 0.16; in the series with E. coli PQ37 [1] (setting [8]), 1.04 ± 0.08; in the series with E. coli PQ37 [1] (setting [9]), 1.05 ± 0.07; with E. coli PQ37 [1] (setting [10]) it was 1.00 ± 0.08; in the series on E. coli PQ37 [1] (setting [11]) it was 1.06 ± 0.06. Further, the Induction factor with E. coli PQ37 [1] (setting [12]) turned out to be 1.03 ± 0.02; in the series on E. coli PQ37 [1] (setting [13]) it was 1.07 ± 0.14. Also, the mean induction factor in the series with E. coli PQ37 [1] came out at 1.07. Besides, the “induction of SOS repair” value in the series on E. coli PQ37 [1] is on record as “did not induce any SOS repair at a frequency significantly above that of the blank”. Moreover, the reduction in genotoxicity in the series with E. coli PQ37 [2] is reported as 98.96%. Also, the “induction factor of 4NQO plus iridoid compared with vehicle blank” value in the series on E. coli PQ37 [2] is on record as “no statistical difference from that of the vehicle blank”. The “thermal stability (DAA content before and after heating)” value in series [5] was “no difference in the DAA contents before and after heating”. Also, in series [3], the “Amount detected, Inter-day” value stood at 1.297 mg/mL. Moreover, the “Amount detected, Day 1” value in series [3] came out at 1.308 mg/mL. Also, the “Amount detected, Day 2” value in series [3] is on record as 1.291 mg/mL. Also, in series [3], the “Amount detected, Day 3” value was determined as 1.291 mg/mL. For the same compound, the “genotoxicity in mammalian cells” value in the series with mammalian cells is listed as “non-genotoxic”.

These data come from US20110217394A1, “Iridoid Based Formulations” (priority 2000, published 2011).
